Earlier results in patent US20080153738A1, “COMPOSITIONS AND METHODS FOR TREATMENT OF HYPERPLASIA” (priority 1997, published 2008).

Test system: in-stent restenosis in porcine coronary arteries

CC(=O)O[C@H]1C(=O)[C@@]2(C)[C@H]([C@H](OC(=O)c3ccccc3)[C@]3(O)C[C@H](OC(=O)[C@H](O)[C@@H](NC(=O)c4ccccc4)c4ccccc4)C(C)=C1C3(C)C)[C@]1(OC(C)=O)CO[C@@H]1C[C@@H]2O [paclitaxel, Paclitaxel]
neointimal area (90 μg paclitaxel stents): significant reduction in neointimal area
Lumen area (15 and 90 μg paclitaxel stents, directly applied without polymer): Lumen area was increased
local cytotoxic effects (stents coated with 90 μg of paclitaxel): significant local cytotoxic effects were observed
diameter stenosis and neointimal area (stents coated with biodegradable polymer, slow-release paclitaxel 175-200 μg/stent, 4 weeks): reduction in diameter stenosis and neointimal area
